Laboratory results reported in patent publication US9487489B2, “Halogen-substituted pyrazole derivatives as pest-control agents” (BAYER CROPSCIENCE AKTIENGESELLSCHAFT, priority 2013, dated 2016).

Key:
[1] = logP determination by HPLC on a reversed-phase column (C18), EEC Directive 79/831 Annex V.A8; type: physicochemical
Procedure: (§1) ^a) Note regarding the determination of the logP values and mass detection: The determination of the given logP values was carried out in accordance with EEC Directive 79/831 Annex V.A8 by HPLC (High Performance Liquid Chromatography) on a reversed-phase column (C18). Agilent 1100 LC system; 50*4.6 Zorbax Eclipse Plus C18 1.8 micron; mobile phase A: acetonitrile (0.1% formic acid); mobile phase B: water (0.09% formic acid); linear gradient from 10% acetonitrile to 95% acetonitrile in 4.25 min, then 95% acetonitrile for a further 1.25 min; oven temperature 55° C.; flow rate: 2.0 ml/min. Mass detection is carried out via an Agilend MSD system.
as §1, with “^*)” for “^a)”

[2] = system: engorged adult female cattle ticks (Boophilus microplus); experiment: Boophilus microplus injection test (BOOPMI Inj); type: in vivo; conditions: application rate 20 μg/animal; injection into abdomen; assessed after 7 days
Procedure: C. Boophilus microplus-injection Test (BOOPMI Inj)
(§2) Solvent: dimethyl sulphoxide
To produce a suitable preparation of active compound, 10 mg of active compound are mixed with 0.5 ml of solvent, and the concentrate is diluted with solvent to the desired concentration.
1 μl of the active compound solution is injected into the abdomen of 5 engorged adult female cattle ticks (Boophilus microplus). The animals are transferred into dishes and kept in a climate-controlled room.
The activity is assessed after 7 days by laying of fertile eggs. Eggs whose fertility is not visible from the outside are stored in a climate-controlled cabinet until the larvae hatch after about 42 days. An efficacy of 100% means that none of the ticks has laid any fertile eggs; 0% means that all eggs are fertile.

[3] = system: adult cat fleas (Ctenocephalides felis); experiment: Ctenocephalides felis oral test (CTECFE); type: in vivo; conditions: application rate 100 ppm in citrated cattle blood; after 2 days
Procedure: D. Ctenocephalides felis-oral Test (CTECFE)
as §2
To produce a suitable preparation of active compound, 10 mg of active compound are mixed with 0.5 ml of dimethyl sulphoxide. Dilution with citrated cattle blood gives the desired concentration.
About 20 unfed adult cat fleas (Ctenocephalides felis) are placed into a chamber which is closed at the top and bottom with gauze. A metal cylinder whose bottom end is closed with a parafilm is placed onto the chamber. The cylinder contains the blood/active ingredient preparation, which can be imbibed by the fleas through the parafilm membrane.
After 2 days, the kill in % is determined 100% means that all of the fleas have been killed; 0% means that none of the fleas have been killed.

[4] = system: L1 larvae of the Australian sheep blowfly (Lucilia cuprina); experiment: Lucilia cuprina test (LUCICU); type: in vivo; conditions: application rate 100 ppm; after 2 days
Procedure: E. Lucilia cuprina Test (LUCICU)
as §2
To produce a suitable preparation of active compound, 10 mg of active compound are mixed with 0.5 ml of dimethyl sulphoxide, and the concentrate is diluted with water to the desired concentration.
About 20 L1 larvae of the Australian sheep blowfly (Lucilia cuprina) are transferred into a test vessel containing minced horsemeat and the active compound preparation of the desired concentration.
After 2 days, the kill in % is determined 100% means that all of the larvae have been killed; 0% means that none of the larvae have been killed.

[5] = system: larvae of the mustard beetle (Phaedon cochleariae); experiment: Phaedon cochleariae spray test (PHAECO); type: in vivo; conditions: Chinese cabbage leaf discs, after 7 days
Procedure: H. Phaedon cochleariae-spray Test (PHAECO)
Solvents: 78.0 parts by weight of acetone
(§3) • 1.5 parts by weight of dimethylformamide Emulsifier: alkylaryl polyglycol ether
(§4) To produce a suitable preparation of active compound, 1 part by weight of active compound is dissolved using the stated parts by weight of solvent and made up with water comprising an emulsifier concentration of 1000 ppm until the desired concentration is reached. To produce further test concentrations, the preparation is diluted with emulsifier-containing water.
After 7 days, the efficacy in % is determined. 100% means that all of the beetle larvae have been killed; 0% means that none of the beetle larvae have been killed.

[6] = system: caterpillars of the armyworm (Spodoptera frugiperda); experiment: Spodoptera frugiperda spray test (SPODFR); type: in vivo; conditions: maize leaf discs, after 7 days
Procedure: I. Spodoptera frugiperda-spray Test (SPODFR)
(§5) Solvent: 78.0 parts by weight of acetone
as §3, §4
Leaf discs of maize (Zea mays) are sprayed with an active compound preparation of the desired concentration and, after drying, populated with caterpillars of the armyworm (Spodoptera frugiperda).
After 7 days, the efficacy in % is determined. 100% means that all of the caterpillars have been killed; 0% means that none of the caterpillars have been killed.

[7] = system: adult dog ticks (Rhipicephalus sanguineus); experiment: Rhipicephalus sanguineus in vitro contact test with adult brown dog ticks (T2); conditions: after 48 h
Procedure: T2. Rhipicephalus sanguineus-in vitro Contact Tests with Adult Brown Dog Ticks
(§6) For the coating of the test tubes, initially 9 mg of active compound are dissolved in 1 ml of acetone p.a. and then diluted with acetone p.a. to the desired concentration. By turning and rocking on an orbital shaker (2 h of rocking rotation at 30 rpm), 250 μl of the solution are distributed homogeneously on the internal walls and the floor of a 25 ml test tube. At 900 ppm active compound solution and 44.7 cm^2 internal surface, an area dose of 5 μg/cm^2 is achieved for homogeneous distribution.
After evaporation of the solvent, the tubes are populated with 5-10 adult dog ticks (Rhipicephalus sanguineus), sealed with a perforated plastic lid and incubated in a horizontal position in the dark at room temperature and ambient humidity. After 48 h, the efficacy is determined. To this end, the ticks are knocked to the floor of the tube and incubated on a hotplate at 45-50° C. for at most 5 min Ticks which remain motionless on the floor or move in an uncoordinated manner such that they are not able to deliberately avoid the heat by climbing upwards are considered to be dead or moribund.
An efficacy of 100% means that all ticks were dead or moribund. 0% efficacy means that none of the ticks had been damaged.

[8] = system: adult cat fleas (Ctenocephalides felis); experiment: Ctenocephalides felis in vitro contact test with adult cat fleas (T1); conditions: after 48 h
Procedure: T1. Ctenocephalides felis—in vitro Contact Tests with Adult Cat Fleas
as §6
After evaporation of the solvent, the tubes are populated with 5-10 adult cat fleas (Ctenocephalides felis), sealed with a perforated plastic lid and incubated in a horizontal position at room temperature and ambient humidity. After 48 h, the efficacy is determined. To this end, the test tubes are stood upright and the fleas are knocked to the floor of the tube. Fleas which remain motionless on the floor or move in an uncoordinated manner are considered to be dead or moribund.
An efficacy of 100% means that all fleas were dead or moribund. 0% efficacy means that none of the fleas had been damaged.

[9] = system: greenhouse red spider mite (Tetranychus urticae); experiment: Tetranychus urticae spray test, OP-resistant (TETRUR); type: in vivo; conditions: application rate 500 g/ha; bean leaf discs; after 6 days
Procedure: J. Tetranychus urticae-spray Test, OP-Resistant (TETRUR)
as §5, §3, §4
Discs of bean leaves (Phaseolus vulgaris) which are infested by all stages of the greenhouse red spider mite (Tetranychus urticae) are sprayed with an active compound preparation of the desired concentration.
After 6 days, the efficacy in % is determined. 100% means that all of the spider mites have been killed; 0% means that none of the spider mites have been killed.

[10] = HPLC on reversed-phase column (C18), acetonitrile/water with formic acid, EEC Directive 79/831 Annex V.A8
[11] = HPLC, reversed-phase C18, acetonitrile (0.1% formic acid)/water (0.09% formic acid) gradient

Row | SMILES | logP [1, 10] | efficacy (laying of fertile eggs) [2] | efficacy (kill in %) [3] | efficacy (kill in %) [4] | efficacy in % ([5]; application rate 500 g/ha) | efficacy in % ([5]; application rate 100 g/ha) | further results
1 | O=C(NC1CC1)c1cc(-c2cnn(-c3c(C(F)(F)F)c(C(F)(F)C(F)(F)F)nn3-c3ccc([N+](=O)[O-])cc3)c2)ccc1Cl [Ic-8] | 4.54 | 100% | 100% | 100% |  |  | 
2 | Cn1nc(C(F)(F)C(F)(F)F)c(C(F)(F)F)c1-n1cc(-c2cc(C(=O)NC3CC3)ncc2F)cn1 [Ic-72] |  | 100% |  | 80% | 100% |  | 
3 | Cn1nc(C(F)(F)C(F)(F)F)c(C(F)(F)F)c1-n1cnc(-c2ccc(Cl)c(C(=O)NC3(C#N)CC3)c2)n1 [Ie-1] |  | 100% | 100% |  |  | 100% | logP [1, 11]: 3.62
4 | Cn1nc(C(F)(F)C(F)(F)F)c(C(F)(F)F)c1-n1cc(-c2cccc(C(N)=O)c2)cn1 [Ic-35] | 3.1 | 80% | 100% | 100% |  | 100% | 
5 | Cn1nc(C(F)(F)C(F)(F)F)c(C(F)(F)F)c1-n1cc(-c2cc(Cl)nc(C(=O)NC3CC3)c2)cn1 [Ic-88] |  | 100% |  | 100% | 100% |  | 
6 | Cn1nc(C(F)(F)C(F)(F)F)c(C(F)(F)F)c1-n1ccc(-c2ccc(Cl)c(C(=O)NC3CC3)c2)n1 [Id-2] |  | 100% | 100% | 95% |  | 100% | efficacy in % ([6]; application rate 100 g/ha): 100%; logP [1, 11]: 3.97
7 | Cn1nc(C(F)(F)F)c(C#N)c1-n1cc(-c2ccc(Cl)c(C(=O)NC3(C#N)CC3)c2)cn1 [Ic-53] | 2.92 | 100% | 100% | 100% |  | 100% | 
8 | Cn1nc(C(F)(F)C(F)(F)F)c(C(F)(F)F)c1-n1cc(-c2cc(C(=O)NC3CC3)c(Cl)cc2F)cn1 [Ic-92] |  | 100% | 80% | 95% | 100% |  | 
9 | Cn1nc(C(F)(F)C(F)(F)F)c(C(F)(F)F)c1-n1cc(-c2cc(OC(F)(F)F)cc(C(=O)NC3(C#N)CC3)c2)cn1 [Ic-75] |  | 100% | 100% | 100% | 100% |  | efficacy in % ([6]; application rate 500 g/ha): 100%
10 | Cn1nc(C(F)(F)C(F)(F)F)c(C(F)(F)F)c1-n1cc(-c2cc(C(=O)NC3(C#N)CC3)ccc2F)cn1 [Ic-42] |  | 100% | 100% | 100% | 100% |  | efficacy in % ([6]; application rate 500 g/ha): 83%
11 | Cn1nc(C(F)(F)C(F)(F)F)c(C(F)(F)F)c1-n1cc(-c2ccc(Cl)c(C(=O)NCC(=O)NCC(F)(F)F)c2)cn1 [Ic-31] | 3.65 |  | 100% | 90% |  | 100% | 
12 | Cn1nc(C(F)(F)C(F)(F)F)c(C(F)(F)F)c1-n1cc(-c2cc(Cl)nc(C(=O)NC3(C#N)CC3)c2)cn1 [Ic-89] |  | 100% | 90% | 100% | 100% |  | efficacy in % ([6]; application rate 500 g/ha): 83%
13 | Cn1nc(C(F)(F)C(F)(F)F)c(C(F)(F)F)c1-n1cc(-c2ccc(Cl)c(C(=O)NC3CCC3)c2)cn1 [Ic-143] |  |  |  |  |  |  | efficacy (dead or moribund ticks) ([7]; application rate 1 μg/cm^2): 100%; efficacy (dead or moribund ticks) ([7]; application rate 5 μg/cm^2): 100%; efficacy (dead or moribund fleas) ([8]; application rate 1 μg/cm^2): 100%; efficacy (dead or moribund fleas) ([8]; application rate 5 μg/cm^2): 100%
14 | N#CC1(NC(=O)c2cc(-c3cnn(-c4c(C(F)(F)F)c(C(F)(F)C(F)(F)F)nn4-c4ncccc4Cl)c3)ccc2Cl)CC1 [Ic-15] | 4.15 | 80% |  |  |  | 100% | 
15 | O=C(NC1CC1)c1cc(-c2cnn(-c3c(C(F)(F)F)c(C(F)(F)C(F)(F)F)nn3-c3ncccc3Cl)c2)ccc1Cl [Ic-14] | 4.28 | 100% |  | 100% |  | 100% | efficacy in % ([6]; application rate 100 g/ha): 100%
16 | CC(C)CNC(=O)c1cc(-c2cnn(-c3c(C(F)(F)F)c(C(F)(F)C(F)(F)F)nn3C)c2)ccc1Cl [Ic-142] |  |  |  |  | 100% |  | efficacy (dead or moribund ticks) ([7]; application rate 1 μg/cm^2): 80%; efficacy (dead or moribund ticks) ([7]; application rate 5 μg/cm^2): 100%; efficacy (dead or moribund fleas) ([8]; application rate 1 μg/cm^2): 100%; efficacy (dead or moribund fleas) ([8]; application rate 5 μg/cm^2): 100%; efficacy in % ([6]; application rate 500 g/ha): 100%; efficacy in % [9]: 100%
17 | Cn1nc(C(F)(F)C(F)(F)F)c(C(F)(F)F)c1-n1cc(-c2cc(OC(F)(F)F)cc(C(=O)NC3CC3)c2)cn1 [Ic-74] |  | 100% | 100% | 100% | 100% |  | efficacy in % ([6]; application rate 500 g/ha): 100%
18 | Cn1nc(C(F)(F)C(F)(F)F)c(C(F)(F)F)c1-n1cc(-c2ccc(Cl)c(C(=O)NC3CC3)c2)c(C(F)(F)F)n1 [Ic-4] | 4.51 | 100% | 100% | 100% |  |  | 
